Experimental data: article PMC10175918 (Communications Biology, 2023)
Where two headings read alike, the source gives them in different places.

What was measured:
Experiment in all cases: TGFα-shedding assay-based GPCR screening with chimeric Gα subunit proteins
Type in all cases: cell-based
348 GPCRs [1] = target: T1, 348 GPCRs (Homo sapiens, UniProt Q13585)
T1 construct: expressed in transfected cells; host or cells: HEK293A

348 GPCRs [2] = target: T2, 348 GPCRs (Homo sapiens, UniProt Q96P66)
T2 construct: expressed in transfected cells; host or cells: HEK293A
T2 sequence (Q96P66 1-508): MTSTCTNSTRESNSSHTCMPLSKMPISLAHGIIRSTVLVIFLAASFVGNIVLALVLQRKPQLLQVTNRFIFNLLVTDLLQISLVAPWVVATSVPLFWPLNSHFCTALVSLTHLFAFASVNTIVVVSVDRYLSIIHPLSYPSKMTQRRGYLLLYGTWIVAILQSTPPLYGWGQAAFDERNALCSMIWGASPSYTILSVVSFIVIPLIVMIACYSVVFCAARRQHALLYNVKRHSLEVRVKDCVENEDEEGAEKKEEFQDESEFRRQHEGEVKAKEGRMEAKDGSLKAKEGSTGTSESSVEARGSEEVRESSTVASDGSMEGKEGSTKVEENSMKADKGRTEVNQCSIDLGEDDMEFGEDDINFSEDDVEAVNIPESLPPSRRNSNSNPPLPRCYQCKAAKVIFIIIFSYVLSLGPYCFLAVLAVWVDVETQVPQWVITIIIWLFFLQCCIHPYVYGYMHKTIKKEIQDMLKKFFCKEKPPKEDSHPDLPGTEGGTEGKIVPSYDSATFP

348 GPCRs [3] = target: T3, 348 GPCRs (Homo sapiens, UniProt Q13324)
T3 construct: expressed in transfected cells; host or cells: HEK293A
T3 sequence (Q13324 1-411): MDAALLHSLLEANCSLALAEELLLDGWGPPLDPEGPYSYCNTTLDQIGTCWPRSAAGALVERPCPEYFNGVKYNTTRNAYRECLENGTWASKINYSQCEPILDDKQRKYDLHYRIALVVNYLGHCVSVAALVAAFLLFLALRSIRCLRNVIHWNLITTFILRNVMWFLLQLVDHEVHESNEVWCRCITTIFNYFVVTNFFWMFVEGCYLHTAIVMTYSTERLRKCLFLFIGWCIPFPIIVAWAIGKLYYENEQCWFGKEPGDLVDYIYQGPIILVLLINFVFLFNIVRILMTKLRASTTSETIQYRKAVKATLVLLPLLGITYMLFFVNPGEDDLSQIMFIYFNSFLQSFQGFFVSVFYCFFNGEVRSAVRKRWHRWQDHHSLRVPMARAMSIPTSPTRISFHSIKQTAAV

348 GPCRs [4] = target: T4, 348 GPCRs (Homo sapiens, UniProt P35348)
T4 construct: expressed in transfected cells; host or cells: HEK293A
T4 sequence (P35348 1-466): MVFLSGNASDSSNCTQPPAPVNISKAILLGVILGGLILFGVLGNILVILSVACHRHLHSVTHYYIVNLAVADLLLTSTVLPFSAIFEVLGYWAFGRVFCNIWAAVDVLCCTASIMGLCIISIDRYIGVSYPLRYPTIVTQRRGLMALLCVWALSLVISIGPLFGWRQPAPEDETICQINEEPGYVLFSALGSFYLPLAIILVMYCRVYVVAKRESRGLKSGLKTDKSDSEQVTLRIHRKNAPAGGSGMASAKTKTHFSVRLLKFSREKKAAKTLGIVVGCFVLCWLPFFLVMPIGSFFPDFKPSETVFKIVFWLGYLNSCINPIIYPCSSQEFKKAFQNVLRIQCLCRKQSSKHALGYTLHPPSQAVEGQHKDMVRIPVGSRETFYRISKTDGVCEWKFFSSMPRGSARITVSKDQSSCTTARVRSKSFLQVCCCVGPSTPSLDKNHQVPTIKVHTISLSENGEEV

348 GPCRs [5] = target: T5, 348 GPCRs (Homo sapiens, UniProt P11229)
T5 sequence (P11229 1-460): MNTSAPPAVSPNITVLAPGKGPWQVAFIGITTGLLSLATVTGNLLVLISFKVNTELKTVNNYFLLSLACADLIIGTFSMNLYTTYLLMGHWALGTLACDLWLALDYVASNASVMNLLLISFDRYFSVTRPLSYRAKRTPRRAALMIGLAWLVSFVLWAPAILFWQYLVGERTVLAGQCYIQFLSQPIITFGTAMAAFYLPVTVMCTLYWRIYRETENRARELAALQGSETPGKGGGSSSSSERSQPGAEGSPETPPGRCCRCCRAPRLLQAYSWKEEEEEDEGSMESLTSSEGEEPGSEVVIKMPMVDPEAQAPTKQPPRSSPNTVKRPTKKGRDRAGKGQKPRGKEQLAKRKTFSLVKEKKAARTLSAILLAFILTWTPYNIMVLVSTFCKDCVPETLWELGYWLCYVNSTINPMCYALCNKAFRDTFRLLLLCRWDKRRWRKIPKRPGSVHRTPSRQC

348 GPCRs [6] = target: T6, 348 GPCRs (Homo sapiens, UniProt Q16570); details: 10µM, Favipiravir 100μM
T6 construct: expressed in transfected cells; host or cells: HEK293A
T6 sequence (Q16570 1-336): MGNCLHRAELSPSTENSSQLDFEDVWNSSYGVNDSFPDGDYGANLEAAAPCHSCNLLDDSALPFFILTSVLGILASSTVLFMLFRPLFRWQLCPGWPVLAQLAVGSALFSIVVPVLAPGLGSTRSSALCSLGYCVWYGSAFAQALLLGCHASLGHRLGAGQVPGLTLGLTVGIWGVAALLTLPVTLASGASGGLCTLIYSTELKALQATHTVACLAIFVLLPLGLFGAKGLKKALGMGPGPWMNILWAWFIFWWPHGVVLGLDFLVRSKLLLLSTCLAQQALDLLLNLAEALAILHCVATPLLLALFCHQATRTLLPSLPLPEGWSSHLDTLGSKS

[7] = GPCR GPR50 (G Protein-Coupled Receptor 50), read-out: % GPCR activation compared to TPA
[8] = GPCR GPR101 (G protein-coupled receptor 101), read-out: % GPCR activation compared to TPA
[9] = GPCR CRHR2 (corticotropin releasing hormone receptor 2), read-out: % GPCR activation compared to TPA
[10] = GPCR α1A (adrenoceptor alpha 1A), read-out: % GPCR activation compared to TPA
[11] = GPCR M1 (Muscarinic acetylcholine receptor M1), read-out: % GPCR activation compared to TPA
[12] = DARC (Duffy blood group, chemokine receptor), read-out: % GPCR activation compared to TPA
[13] = read-out: % GPCR activation compared to TPA, GPCR GPR50 (G Protein-Coupled Receptor 50)
[14] = read-out: % GPCR activation compared to TPA, GPCR GPR101 (G protein-coupled receptor 101)
[15] = read-out: % GPCR activation compared to TPA, GPCR CRHR2 (corticotropin releasing hormone receptor 2)
[16] = read-out: % GPCR activation compared to TPA, GPCR α1A (adrenoceptor alpha 1A)
[17] = read-out: % GPCR activation compared to TPA, GPCR M1 (Muscarinic acetylcholine receptor M1)
[18] = read-out: % GPCR activation compared to TPA, DARC (Duffy blood group, chemokine receptor)

T1 sequence (Q13585 whole entry): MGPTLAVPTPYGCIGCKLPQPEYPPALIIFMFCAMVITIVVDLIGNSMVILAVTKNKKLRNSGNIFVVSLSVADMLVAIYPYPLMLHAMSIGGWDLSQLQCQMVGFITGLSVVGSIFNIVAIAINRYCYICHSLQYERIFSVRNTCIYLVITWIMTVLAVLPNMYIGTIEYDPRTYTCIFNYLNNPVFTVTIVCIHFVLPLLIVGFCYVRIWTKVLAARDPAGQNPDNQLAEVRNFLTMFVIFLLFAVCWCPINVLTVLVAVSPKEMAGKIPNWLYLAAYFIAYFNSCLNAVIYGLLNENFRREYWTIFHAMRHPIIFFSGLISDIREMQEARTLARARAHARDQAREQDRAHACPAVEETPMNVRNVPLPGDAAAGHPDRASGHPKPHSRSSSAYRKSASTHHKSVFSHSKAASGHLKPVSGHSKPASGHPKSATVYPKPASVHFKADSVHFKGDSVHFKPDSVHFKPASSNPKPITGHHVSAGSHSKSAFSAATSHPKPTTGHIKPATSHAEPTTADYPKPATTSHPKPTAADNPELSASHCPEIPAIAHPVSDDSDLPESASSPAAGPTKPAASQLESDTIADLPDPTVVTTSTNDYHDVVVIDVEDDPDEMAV

Compound | activation at 10 µM (348 GPCRs [1]; [7]) [%] | activation at 10 µM (348 GPCRs [2]; [8]) [%] | activation at 10 µM (348 GPCRs [3]; [9]) [%] | activation at 10 µM (348 GPCRs [4]; [10]) [%] | activation at 10 µM (348 GPCRs [5]; [11]) [%] | activation at 100 µM (348 GPCRs [6]; [12]) [%] | activation at 10 µM (348 GPCRs [1]; [13]) [%] | activation at 10 µM (348 GPCRs [2]; [14]) [%] | activation at 10 µM (348 GPCRs [3]; [15]) [%] | activation at 10 µM (348 GPCRs [4]; [16]) [%] | activation at 10 µM (348 GPCRs [5]; [17]) [%] | activation at 100 µM (348 GPCRs [6]; [18]) [%] | activation at 100 µM (348 GPCRs [1]; GPCR GPR50 (G Protein-Coupled Receptor 50), 100μM, read-out: % GPCR activation compared to TPA) [%] | activation at 100 µM (348 GPCRs [2]; GPCR GPR101 (G protein-coupled receptor 101), 100μM, read-out: % GPCR activation compared to TPA) [%] | activation at 100 µM (348 GPCRs [3]; GPCR CRHR2 (corticotropin releasing hormone receptor 2), 100μM, read-out: % GPCR activation compared to TPA) [%] | activation at 100 µM (348 GPCRs [4]; GPCR α1A (adrenoceptor alpha 1A), 100μM, read-out: % GPCR activation compared to TPA) [%] | activation at 100 µM (348 GPCRs [5]; GPCR M1 (Muscarinic acetylcholine receptor M1), 100μM, read-out: % GPCR activation compared to TPA) [%]
N#C[C@@]1(c2ccc3c(N)ncnn23)O[C@H](CO)[C@@H](O)[C@H]1O [GS441524] | -1.05 | -0.779 | 0.656 | 0.0114 | 0.618 | 1.78 |  |  |  |  |  |  |  |  |  |  | 
CC(C)OC(=O)[C@H](C)N[P@](=O)(OC[C@H]1O[C@@H](n2ccc(=O)[nH]c2=O)[C@](C)(F)[C@@H]1O)Oc1ccccc1 [sofosbuvir] |  |  |  |  |  |  | -0.301 | -3.4 | 2.1 | 0.301 | -0.631 | -1.56 |  |  |  |  | 
CCC(CC)COC(=O)[C@H](C)N[P@](=O)(OC[C@H]1O[C@@](C#N)(c2ccc3c(N)ncnn23)[C@H](O)[C@@H]1O)Oc1ccccc1 [remdesivir] |  |  |  |  |  |  | -1.37 | 1.7 | 1.58 | 0.479 | 3.01 | 5.17 |  |  |  |  | 
CC(C)C(=O)OC[C@H]1O[C@@H](n2ccc(NO)nc2=O)[C@H](O)[C@@H]1O [molnupiravir] | -1.45 | -0.865 | -0.005 | 0.335 | -0.856 | 0.223 |  |  |  |  |  |  |  |  |  |  | 
NC(=O)c1nc(F)cnc1O [favipiravir, 6-fluoro-3-hydroxy-2-pyrazinecarboxamide] |  |  |  |  |  | 1.68 |  |  |  |  |  |  | -0.692 | -0.717 | -0.529 | 0.574 | 0.788
